In data set [1] the test system is mitochondrial DNA content of CEM cells. As to the kind of experiment: Mitochondrial DNA toxicity, slot blot of CEM cell lysates. Format: cell-based. As for the experimental part:
Quantitation of mitochondrial DNA content was performed as previously published (18). Briefly, CEM cell lysates were spotted onto Hybond paper using the Miliford II slot blot apparatus (Schleicher & Schuell). MTDNA was detected with mtDNA-specific probe and then reprobed with Alu probe for internal control. The autoradiographic bands were quantified on scanning densitometer (Molecular Dynamics).

The test system of data set [2] is HCV genotype 1b (Con1) replicon. The experiment in a line: Effect of serum concentration on anti-HCV activity, luciferase assay in Huh-luc/neo-ET cells. Format: cell-based, Hepatitis C virus. Conditions: for EC50: 72 hrs. As for the experimental part:
Cells were harvested after 72 hrs for luciferase activity assays.
Huh-luc/neo-ET cells were incubated with compound 1, 4 or 6 for 72 hrs and the anti-HCV activity was evaluated by measuring the reduction of reporter luciferase activities.

The target in data set [3] is cytochrome c (Equus caballus, UniProt P00004). Conditions: read-out: Kd, binding to cyt c; cited from earlier work.
Sequence of cytochrome c (P00004 2-105 limits assumed): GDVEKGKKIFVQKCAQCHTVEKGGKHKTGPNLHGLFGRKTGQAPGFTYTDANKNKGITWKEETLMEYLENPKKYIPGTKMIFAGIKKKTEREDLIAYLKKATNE
Data set [4] has as its system Huh-7 cells. As to the kind of experiment: Cytotoxicity in Huh-7 cells (methylene blue or CellTiter-Glo). Format: cell-based. The following applies: Huh-7 cells, 3 days; read-out: Cytotoxicity CC50 Huh-7. As for the experimental part: (§1) Determination of cytotoxicity and mitochondrial DNA toxicity. Exponentially growing Huh-7 cells were seeded at a density of 1×10^4 cells per well in a 24-well plate and incubated with TPP analogues for 3 days. Cells were fixed and stained with 0.5% methylene blue in 50% ethanol followed by extensive washing. After the plates were air dried, cells were solubilized in 1% sarkosyl and cell growth was determined from the extent of absorption by spectrophotometric measurements at 595 nm (Biotek Instruments). For compounds whose dark color interfered with 595-nm reading, cytotoxicity was measured by the CellTiter-Glo luminesecent cell viability assay following manufacturer's description (Promega). Cytotoxicity in MT-2 cells was determined from colorimetric quantitation of uninfected MT-2 cells after 5 days of coincubation.

Data set [5] has as its system CEM cells. As to the kind of experiment: Cytotoxicity in CEM cells. Conditions: read-out: Cytotoxicity CC50 CEM.
In data set [6] the test system is HIV-1 IIIB. As to the kind of experiment: Anti-HIV activity in MT-2 cells, MTT quantitation of viral CPE. Format: cell-based. Conditions: MT-2 cells, 5 days; read-out: Antiviral Activity EC50 HIV-1 IIIB. On the procedure: Determination of antiviral activities. Ff-luciferase reporter activity was used to monitor the replication of HCV replicons in Huhluc/neo-ET cells free from G418. Replicon cells were seeded at the density of 5×10^3 cells per well in 96-well plates. The following day, replicon cells were incubated in duplicates with DMSO or serially diluted tetraphenylporphyrin (TPP) analogues at 37″C. 72 hrs after co-incubation, cells were lysed with ice-cold passive lysis reagent after PBS wash, and the luciferase activity was measured with the luciferase assay kit (Promega) and Tecan FARCyte luminometer (GE Healthcare) following the manufacturers' descriptions. The relative light units (RLU) were adjusted as percentage readings of the compound-free controls and the 50% effective concentration (EC50) was determined from dose-effect curve by nonlinear regression analysis using Origin 6.1 (OriginLab Software). TPP analogues were also screened in vitro against HIV-I IIIB and HBV as previously described (26,41). Briefly 1×10^3 MT-2 cells per well were exposed in triplets to 0.1TC1D50/cell (50% of the tissue culture infectious dose) of HIV-1 IIIB and cultured in the presence of compounds. The EC50 values were estimated by MTT-based colorimetric quantitation of viral CPE after 5 days. Anti-HBV activities were evaluated in 2.2.15 cells by means of Southern DNA hybridization.

In data set [7] the test system is MT-2 cells. The experiment in a line: Cytotoxicity in uninfected MT-2 cells. The format is cell-based. The following applies: uninfected MT-2 cells, 5 days; read-out: Cytotoxicity CC50 MT-2. As for the experimental part:
as §1

Data set [8] relates to mitochondrial potential of Huh-luc/neo-ET cells. Conditions: up to 1 M for 9 days, compared with mock-treated control. On the procedure:
We treated Huh-luc/neo-ET cells with up to 1 µM of compound 6 for 9 days, during which the media were replenished every 3 days and the cells were passaged once. Live cells were stained with the ratiometric indicator JC-1 (Invitrogen) in order to measure the mitochondrial potential using confocal microscopy.

SMILES strings stand for the structures. Like-named read-outs stand apart in the source and are kept apart here.

Results on one compound are retold here after US20110064694A1, “ANTI-HEPATITIS C ACTIVITY OF MESO-TETRAKIS-PORPHYRIN ANALOGUES” (YALE UNIVERSITY, priority 2009, published 2011).

What is called IC50 is the concentration at which inhibition is half-maximal. In general, EC50 refers to the concentration at which the effect is half-maximal. As usually defined, the Kd is the constant that tells how readily two partners part at equilibrium. In general, CC50 refers to the concentration that lowers cell viability or growth by half.

In the case of `O=C(O)c1cc(C(=O)O)cc(-c2ccc(-c3c4nc(c(-c5ccc(-c6cc(C(=O)O)cc(C(=O)O)c6)cc5)c5ccc([nH]5)c(-c5ccc(-c6cc(C(=O)O)cc(C(=O)O)c6)cc5)c5nc(c(-c6ccc(-c7cc(C(=O)O)cc(C(=O)O)c7)cc6)c6ccc3[nH]6)C=C5)C=C4)cc2)c1` [Compound 6, Meso-teftakis-(3,5-dicarboxy-4,4′-biphenyl)porphyrin], in data set [1], the “effect on amount of mitochondrial DNAs” value is reported as “did not alter the amount of mitochondrial DNAs”. In addition, in data set [1] (CEM cells, read-out: Mitochondrial DNA Toxicity IC50 CEM), the IC50 is greater than 50000 nM. In addition, the EC50 in data set [2] (5% FBS, read-out: EC50 5% FBS) was 13 ± 3 nM; in data set [2] (40% FBS, read-out: EC50 40% FBS) it was 69 ± 11 nM; in data set [2] (extrapolation of the plot of EC50 vs serum amount, read-out: EC50 0% FBS (Theoretical)), 6.5 nM; in data set [2] (read-out: EC50 10% FBS, 10% FBS), 24 ± 5 nM; in data set [2] (read-out: EC50 20% FBS, 20% FBS), 39 ± 5 nM; in data set [6] it was 3670 ± 1220 nM. For the same compound, in data set [2] (EC50 at 5% FBS as one fold), the “Fold Change in EC50 5% FBS” value is recorded as 1.00. The “Fold Change in EC50 10% FBS” value in data set [2] (relative to EC50 at 5% FBS) is 1.92 ± 0.22. Also, in data set [2] (relative to EC50 at 5% FBS), the “Fold Change in EC50 20% FBS” value is given as 3.20 ± 0.96. In addition, the “Fold Change in EC50 40% FBS” value in data set [2] (relative to EC50 at 5% FBS) was 5.56 ± 0.85. Moreover, the Kd in data set [3] was 1500 ± 170 nM. In addition, the CC50 is greater than 50000 nM in data set [4], greater than 50000 nM in data set [5] and 18000 ± 4240 nM in data set [7]. In addition, in data set [8], the “effect on mitochondrial potential” value is “did not affect the mitochondrial potential”.
